Data set [1] can be described thus: Safety of tumescent drug delivery: subcutaneous infiltration of 20 ml tumescent solutions. As to conditions: for ecchymosis / local tenderness upon palpation / stinging upon injection: subcutaneous TI, 20 ml, 6 of 6 subjects. Here is the method: We studied 6 subjects over 6 days after subcutaneous infiltration of a 20 ml of tumescent solutions of acyclovir and 20 ml of tumescent gentamicin with 20 ml of subcutaneous normal saline and 20 ml of subcutaneous bacteriostatic saline as controls.

Data set [2] concerns Staphylococcus aureus (MRSA) ATCC 33592. The class given is cell-based. An excerpt:
Determinations of MBC followed the method described in “Report on the Working Party on Antibiotic Sensitivity Testing of the British Society of Antimicrobial Chemotherapy: A Guide to Sensitivity Testing.”

For data set [3] the test system is unchanged. As to conditions: combined test product Lidocaine+Cefazolin.
Protocol: (§1) Following inoculation, survival of test microorganisms was determined.
For data set [4] the following is noted: mixed together in a saline solution for IV delivery; 8° C.; cited from earlier work.
Data set [5] concerns Staphylococcus aureus (MRSA) ATCC 33592. The data set is described as follows: microbe, parasite or virus in culture. As to conditions: 24 h, read-out: MIC end point.
Protocol: as §1
The conditions of data set [6]: for adverse local or systemic effects after subcutaneous tumescent infiltration: dilute drug in TAD solution; for AUC / Cmax: Table 16B. An excerpt:
Five pharmacokinetic studies each involved one IVAD procedure and one or two TAD procedures or a concomitant TAD+IVAD procedure. […] The AUC∞ and Cmax with TAD and with IVAD were compared.
The protocol received institutional review board approval and written informed consent was obtained prior to each research procedure. We compared tumescent antibiotic delivery (TAD) and intravenous antibiotic delivery (IVAD) with respect to concentration-time profile, AUC∞, Cmax and T>MIC.
Only after a prospective patient had requested liposuction surgery was the person offered the opportunity to participate in this research. Volunteer subjects were offered liposuction at no cost.
Exclusion criteria were: current significant health problems, history or evidence of HIV or Hepatitis C infection and […] of drugs that block cytochrome P450 3A4 or 1A2 or impair hemostasis.
Each of the 5 studies consisted of one IV antibiotic delivery (IVAD) procedure and one or two TAD infiltration procedures. In individual subjects, procedures were performed at least one week apart.
Metronidazole for IV delivery is available as 500 mg in 100 ml.
The discomfort of tumescent infiltration was minimized by a sequential infiltration technique: first using a spinal needle to infiltrate a relatively small volume of TAD sufficient to provide minimal anesthesia to allow comfortable insertion of blunt-tipped 16 gauge tumescent infiltration cannulas that provide large volume infiltration. The spinal needle and blunt-tipped infiltration cannulas were inserted through the skin via 1 mm adits made by a 1 mm skin biopsy punch. All patients were fully awake and received no parenteral sedation.
Sample Collection: After […], only serum concentrations were measured. After TAD both serum and TISF concentrations were measured. IVAD was achieved via an antecubital vein. Serum samples were obtained via an indwelling IV catheter in the contralateral antecubital vein.
A two-syringe sampling technique first removed 2 mL of blood, which was discarded, and then 10 mL of blood was obtained in a second syringe for drug assay. After each blood sample the IV catheter was flushed with 2 ml of saline and then 0.5 mL of heparin (10 units/mL).
Sequential samples of tumescent adipose tissue (10 ml to 20 ml) were obtained by the hand-held syringe liposuction technique. Sampling began at time T0 immediately after completing TAD infiltration and continued every 1 to 2 hours until the subject experienced significant discomfort as the result of diminishing local anesthesia. Samples of the subcutaneous tissue aspirate were centrifuged. The supranatant fat was discarded.
Data Analysis: We recorded the effect of varying the mg dose and mg/L concentration of antibiotics within TAD solutions between procedures in individual subjects and between different subjects.
Linear regression analysis was used to determine the correlation (coefficient of determination R2) between the antibiotic concentration (mg/L) in a TAD solution and Cmax in the infranatant liposuctioned subcutaneous tissue TISF. After TAD and after IVAD, Cmax in serum was determined by inspection of the sequential assays. AUC∞ was determined by the trapezoid rule.
At the time when each sample of TISF was obtained, patients were examined and questioned about signs and symptoms of subcutaneous tissue toxicity including unusual soreness, tenderness, discoloration, swelling at sites of subcutaneous tumescent infiltration. […] One week after TAD patients were questioned by telephone about any signs and symptoms of subcutaneous tissue toxicity at the sites of TAD.

The next data set has as its system platelet function. Briefly: Bleeding time and bleeding area before and after tumescent lidocaine exposure (Duke method). As to conditions: post-op tumescent lidocaine exposure. The class given is in vivo, human. Here is the method:
The skin of the left and right thigh of a subject is cleaned and allowed to dry. […] Simultaneous 4 mm deep puncture wounds are made to the same area of the left and right thighs with disposable lancets. The puncture sites are blotted with filter paper every 30 seconds, until bleeding stops and the bleeding time for each thigh is recorded. The bleeding times of the left and right thigh are compared to determine if administration of TLAnti increases bleeding time. Normal bleeding time measured by the Duke method is 1 to 3 minutes.
In a preliminary experiment, bleeding time and bleeding area were measured in a patient before and after tumescent lidocaine exposure. […] In contrast, there was a 40% increase in Average Bleeding Area (BA). Bleeding Area (BA) was a more sensitive and a more specific test for platelet function compared to Bleeding Time (BT). […] In otherwords, TAD may reduce the risk of both post-operative surgical site infection and post-operative thromboembolism.

For data set [7] the following is noted: adults; TLA without liposuction.
In data set [8] the test system is platelet aggregation induced by ADP, epinephrine and collagen. As to conditions: cited from earlier work.
The next data set deals with human neutrophils. The settings on record: cited from earlier work.
The conditions of data set [9]: commercial lidocaine (1%) with epinephrine (1:100,000); cited from earlier work.
[10] abbreviates: Abdomen, TISF, TAD, 172 mg/L, TAD dose 600 mg.
Setting [11] is: Abdomen, serum, TAD, 172 mg/L, TAD dose 600 mg.

Converted amounts (≈) assume the structure as drawn. “And” between values parts separate entries of the source, which are not always exact repeats. Equal values may be shown once. Read-outs that look alike come from different tables or passages of the source.

With `Nc1nc2c(ncn2COCCO)c(=O)[nH]1` [Acyclovir], in [1], the ecchymosis result was “no ecchymosis”, the “local tenderness upon palpation” value was “no local tenderness upon palpation” and the stinging upon injection entry is reported as “no stinging upon injection”.
With `Cc1nnc(SCC2=C(C(=O)O)N3C(=O)[C@@H](NC(=O)Cn4cnnn4)[C@H]3SC2)s1` [Cefazolin], the “MRSA survival (MBC test)” value is given as “+” in data set [2] (62.5 mg/L, Day 1, MRSA Inoculum 4.7 × 10^5 CFU/ml); “+” in data set [2] (62.5 mg/L, Day 2, MRSA Inoculum 4.4 × 10^5 CFU/ml); “+” in [2] (125 mg/L, Day 1, MRSA Inoculum 4.7 × 10^5 CFU/ml); “+” in data set [2] (125 mg/L, Day 2, MRSA Inoculum 4.4 × 10^5 CFU/ml); 0 in data set [2] (250 mg/L, Day 1, MRSA Inoculum 4.7 × 10^5 CFU/ml); 0 in data set [2] (250 mg/L, Day 2, MRSA Inoculum 4.4 × 10^5 CFU/ml). Besides, in data set [3], the “potency of Cefazolin against MRSA in the presence of Lidocaine” value is reported as “not inhibited by the presence of Lidocaine”. The “chemically stable for” value in [4] is “at least 72 hours”. Besides, the MIC in [5] was determined as 125 µg/mL (≈ 275 µM).
In the case of `CNC[C@H](O)c1ccc(O)c(O)c1` [Epinephrine], the “adverse local or systemic effects after subcutaneous tumescent infiltration” value (“adverse local or systemic effects” for short) in data set [6] was “no adverse local or systemic effects”.
Consider `CCN(CC)CC(=O)Nc1c(C)cccc1C` [Lidocaine], for which the “MRSA survival (MBC test)” value in data set [2] (1,000 mg/L, Day 1, MRSA Inoculum 4.7 × 10^5 CFU/ml) is reported as “+”; in data set [2] (1,000 mg/L, Day 2, MRSA Inoculum 4.4 × 10^5 CFU/ml), “+”; in [2] (5,000 mg/L, Day 2, MRSA Inoculum 4.4 × 10^5 CFU/ml) it was “+”; in [2] (10,000 mg/L, Day 2, MRSA Inoculum 4.4 × 10^5 CFU/ml) it was 0. The “Average Bleeding Area (BA)” value in the data set on platelet function (Patient 1 (control BA = 541)) is given as “BA = 759”. Moreover, the “Average Bleeding Time (BT)” value in the data set on platelet function (Patient 1 (control BT = 6)) is reported as “BT = 5.75”. Also, in the data set with platelet function (Patient 1, single tests T3, T4), the “Bleeding Time BT × 2” value was 10 and 13. For the same compound, in [6], the “adverse local or systemic effects” value was “no adverse local or systemic effects”. The “maximum safe dosage (estimated)” value in [7] is 30 mg/kg. For the same compound, in [8] (aggregation induced by ADP, epinephrine and collagen), the “lidocaine concentration that consistently inhibits in-vitro platelet aggregation” value is no less than 0.5 mg/mL. For the same compound, the “effect on platelet aggregation induced by ADP” value (from here on “effect … by ADP”) in data set [8] is given as “inhibit platelet aggregation induced by ADP”. Also, the “effect on platelet aggregation” value in data set [8] (safe systemic concentrations (e.g. ≤6 micrograms/ml)) is reported as “no effect on platelet aggregation”. The “reactive oxygen species (ROS) production by human neutrophils” value in the data set on human neutrophils (concentrations 100-fold higher than safe serum lidocaine concentrations (≤5 μg/ml)) was “effectively reduced reactive oxygen species (ROS) production”. For the same compound, in the data set on human neutrophils (therapeutic serum lidocaine concentrations), the “effect on ROS” value is reported as “no effect on ROS”. For the same compound, in [9], the “dosage limitation approved by the FDA for infiltration local anesthesia” value was 7 mg/kg.
As to `Cc1ncc([N+](=O)[O-])n1CCO` [Metronidazole], in data set [6] (600 mg as TAD (400 mg) + IVAD (200 mg) vs 600 mg IVAD alone), the “Cmax in subcutaneous TISF after TAD+IVAD relative to serum after IVAD alone” value was 10 times. The “Cmax in TISF after TAD relative to Cmax in serum after IVAD” value in data set [6] (TAD 500 mg vs IVAD 500 mg) came to 24.7 times. Further, the AUC (commonly the area under the concentration-time curve, a measure of exposure) is 1032 µg·h/mL in data set [6] (setting [10]); 81 µg·h/mL in [6] (setting [11]); 127 µg·h/mL in data set [6] (serum, IVAD, dose 600 mg). Moreover, the Cmax (commonly the peak of the concentration-time curve) in data set [6] (setting [10]) is 160 µg/mL; in data set [6] (setting [11]) it was 4.8 µg/mL; in data set [6] (serum, IVAD, dose 600 mg) it was 14 µg/mL. Also, the “adverse local or systemic effects” value in data set [6] is “no adverse local or systemic effects”. Further, the “concentration-time profiles of cefazolin and metronidazole in TISF after TAD compared” value in data set [6] (equal mg doses and equal mg/L concentrations in the TAD solution) was “identical”. Moreover, the “initial period in which serum concentrations were greater after IVAD than after TAD; beyond it TAD greater” value in data set [6] (serum) was 10 h. The “chemically stable for” value in data set [4] is on record as “at least 72 hours”.
As for `CCOC(=O)c1ccc(N)cc1` [benzocaine], the “effect … by ADP” value in data set [8] is recorded as “inhibit platelet aggregation induced by ADP”.
Turning to `CCCCN1CCCCC1C(=O)Nc1c(C)cccc1C` (stereo not shown) [bupivacaine], the “effect … by ADP” value in [8] is listed as “inhibit platelet aggregation induced by ADP”.
Turning to Gentamicin, the “clinically significant adverse effects of subcutaneous injection in a dilute tumescent solution” value in data set [1] (conclusion) is “without any clinically significant adverse effects”. Also, in data set [1], the ecchymosis result is “no ecchymosis”, the “local tenderness upon palpation” value was “no local tenderness upon palpation” and the stinging upon injection entry is “no stinging upon injection”.

The record behind these values is patent US11241412B2 (priority 2015, dated 2022).
